Settings: Liquid

CCCCC(CC)COC(=O)c1ccccc1C(=O)OCC(CC)CCCC (configuration not stated) [bis(2-ethylhexyl) 1,2-benzenedicarboxylate]
Settings | vapor or sublimation pressure [kPa]
423.15 K | 0.008
433.15 K | 0.017
443.15 K | 0.0326
448.15 K | 0.0419
453.15 K | 0.0655
463.15 K | 0.1154
473.15 K | 0.1874
